Measurements as given in patent US10023570B2 (Array BioPharma, Inc., priority 2015, dated 2018).
Counter-ions that a name gives are not always drawn.

Molecular target: human KDR protein in HEK-293 cells (Homo sapiens (Human), UniProt P35968)
Assay: KDR Cell Assay (phospho-KDR in HEK-293 cells expressing inducible KDR)
Type: cell-based
Conditions: pKDR Cell HEK 10% FBS IC50, HEK-293 cells expressing inducible KDR, VEGF stimulated
Protocol: The cellular potency of a compound inhibiting KDR kinase was determined in HEK-293 cells expressing an inducible human KDR protein. […] The cells were incubated for 1 hour with test compound in DMEM at a final DMSO concentration of 0.25%. […] The media was aspirated and 35 μL of a 1× lysis buffer was added. […] The lysate was stored at −80° C. until ready for assay. Phospho-KDR was measured using a phospho-KDR kit (Catalog #K151BOC) purchased from Meso Scale Diagnostics (Rockville, Md.) according to the manufacturer's instructions. All values are expressed as percent of percent of control (POC). The POC values were fitted to a 4 parameter logistic curve fit and the IC50 value is point where the curve crosses 50 POC.

human KDR protein in HEK-293 cells, sequence (P35968 20-1356): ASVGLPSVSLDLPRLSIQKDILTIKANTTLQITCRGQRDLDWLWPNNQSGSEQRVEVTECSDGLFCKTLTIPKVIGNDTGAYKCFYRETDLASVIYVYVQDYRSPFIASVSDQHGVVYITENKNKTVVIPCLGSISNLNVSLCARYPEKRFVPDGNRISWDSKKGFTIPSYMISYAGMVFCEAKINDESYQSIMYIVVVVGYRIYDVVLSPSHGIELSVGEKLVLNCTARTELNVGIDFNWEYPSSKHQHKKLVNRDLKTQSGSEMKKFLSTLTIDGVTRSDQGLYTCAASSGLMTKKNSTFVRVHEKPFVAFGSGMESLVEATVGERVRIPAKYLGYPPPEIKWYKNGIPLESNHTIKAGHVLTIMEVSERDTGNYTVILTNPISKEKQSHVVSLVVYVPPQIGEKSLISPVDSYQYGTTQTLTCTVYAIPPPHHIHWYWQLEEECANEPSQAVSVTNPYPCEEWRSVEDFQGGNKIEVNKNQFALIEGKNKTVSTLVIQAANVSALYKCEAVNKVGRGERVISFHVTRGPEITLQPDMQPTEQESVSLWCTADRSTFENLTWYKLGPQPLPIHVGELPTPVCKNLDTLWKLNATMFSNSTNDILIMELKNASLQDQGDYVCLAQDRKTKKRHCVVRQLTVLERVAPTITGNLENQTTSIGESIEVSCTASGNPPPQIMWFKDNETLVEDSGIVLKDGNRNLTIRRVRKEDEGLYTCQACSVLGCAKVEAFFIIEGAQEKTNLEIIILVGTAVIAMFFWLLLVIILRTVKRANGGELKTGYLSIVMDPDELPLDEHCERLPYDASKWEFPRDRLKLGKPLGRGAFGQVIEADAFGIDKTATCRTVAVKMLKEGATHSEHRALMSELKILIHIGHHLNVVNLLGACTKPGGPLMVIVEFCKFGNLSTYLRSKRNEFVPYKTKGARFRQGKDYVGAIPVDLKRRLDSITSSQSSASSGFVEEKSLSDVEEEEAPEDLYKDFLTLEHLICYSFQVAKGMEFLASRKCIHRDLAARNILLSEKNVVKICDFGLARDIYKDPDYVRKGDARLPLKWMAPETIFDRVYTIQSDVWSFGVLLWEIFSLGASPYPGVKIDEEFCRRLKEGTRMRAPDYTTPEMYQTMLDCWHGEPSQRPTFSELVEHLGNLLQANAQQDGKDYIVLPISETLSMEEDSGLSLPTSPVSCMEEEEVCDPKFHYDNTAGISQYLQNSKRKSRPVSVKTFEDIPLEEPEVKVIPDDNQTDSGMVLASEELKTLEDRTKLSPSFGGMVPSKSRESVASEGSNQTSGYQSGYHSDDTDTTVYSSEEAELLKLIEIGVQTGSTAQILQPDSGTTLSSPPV

| Structure (SMILES) | IC50 (10% FBS) | IC50 |
| --- | --- | --- |
| Cn1cc(-c2cc(-c3ccc(N4CCN(C(=O)Cc5ccc(OC(F)(F)F)cc5)CC4)nc3)c3c(C#N)cnn3c2)cn1 [Example 357, 6-(1-methyl-1H-pyrazol-4-yl)-4-(6-(4-(2-(4-(trifluoromethoxy)phenyl)acetyl)piperazin-1-yl)pyridin-3-yl)pyrazolo[1,5-a]pyridine-3-carbonitrile 2,2,2-trifluoroacetate] | 2040 nM |  |
| CC(C)NC(=O)[C@@H]1CN(c2ccc(-c3cc(-c4cnn(C)c4)cn4ncc(C#N)c34)cn2)CCO1 [Example 228, (S)-4-(5-(3-cyano-6-(1-methyl-1H-pyrazol-4-yl)pyrazolo[1,5-a]pyridin-4-yl)pyridin-2-yl)-N-isopropylmorpholine-2-carboxamide] | 4530 nM |  |
| COCC1(C(=O)N2CCN(c3ccc(-c4cc(-c5cnn(C)c5)cn5ncc(C#N)c45)cn3)CC2)CCC1 [Example 354, 4-(6-(4-(1-(methoxymethyl)cyclobutanecarbonyl)piperazin-1-yl)pyridin-3-yl)-6-(1-methyl-1H-pyrazol-4-yl)pyrazolo[1,5-a]pyridine-3-carbonitrile] | 1290 nM |  |
| Cn1cc(-c2cc(-c3ccc(N4CCN(C(=O)C[C@H](N)c5ccccc5)CC4)nc3)c3c(C#N)cnn3c2)cn1 [Example 23, (S)-4-(6-(4-(3-amino-3-phenylpropanoyl)piperazin-1-yl)pyridin-3-yl)-6-(1-methyl-1H-pyrazol-4-yl)pyrazolo[1,5-a]pyridine-3-carbonitrile dihydrochloride] | 45.4 nM |  |
| C[C@H](O)Cn1cc(-c2cc(-c3ccc(N4CCN(C(=O)CC(C)(C)C)CC4)cc3)c3c(C#N)cnn3c2)cn1 [Example 304, (S)-4-(4-(4-(3,3-dimethylbutanoyl)piperazin-1-yl)phenyl)-6-(1-(2-hydroxypropyl)-1H-pyrazol-4-yl)pyrazolo[1,5-a]pyridine-3-carbonitrile] | 1610 nM |  |
| Cn1cc(-c2cc(-c3ccc(N4CCC(NC(=O)[C@@H]5CCCO5)CC4)nc3)c3c(C#N)cnn3c2)cn1 [Example 182, (5)-N-(1-(5-(3-cyano-6-(1-methyl-1H-pyrazol-4-yl)pyrazolo[1,5-a]pyridin-4-yl)pyridin-2-yl)piperidin-4-yl)tetrahydrofuran-2-carboxamide] | 563 nM |  |
| CC(C)CS(=O)(=O)N1CCN(c2ccc(-c3cc(-c4cnn(C)c4)cn4ncc(C#N)c34)cn2)CC1 [Example 90, 4-(6-(4-(isobutylsulfonyl)piperazin-1-yl)pyridin-3-yl)-6-(1-methyl-1H-pyrazol-4-yl)pyrazolo[1,5-a]pyridine-3-carbonitrile] | 24.1 nM |  |
| Cn1cc(-c2cc(-c3ccc(N4CCN(C(=O)OC(C)(C)C)C5(CC5)C4)nc3)c3c(C#N)cnn3c2)cn1 [Example 166, tert-butyl 7-(5-(3-cyano-6-(1-methyl-1H-pyrazol-4-yl)pyrazolo[1,5-a]pyridin-4-yl)pyridin-2-yl)-4,7-diazaspiro[2.5]octane-4-carboxylate] | 1990 nM |  |
| Cn1cc(-c2cc(-c3ccc(N4CCN(C(=O)N5CCC(F)(F)C5)CC4)nc3)c3c(C#N)cnn3c2)cn1 [Example 101, 4-(6-(4-(3,3-difluoropyrrolidine-1-carbonyl)piperazin-1-yl)pyridin-3-yl)-6-(1-methyl-1H-pyrazol-4-yl)pyrazolo[1,5-a]pyridine-3-carbonitrile] | 868 nM |  |
| Cn1cc(-c2cc(-c3ccc(N4CCC5(CCCN5C(=O)OC(C)(C)C)CC4)nc3)c3c(C#N)cnn3c2)cn1 [Example 513, tert-butyl 8-(5-(3-cyano-6-(1-methyl-1H-pyrazol-4-yl)pyrazolo[1,5-a]pyridin-4-yl)pyridin-2-yl)-1,8-diazaspiro[4.5]decane-1-carboxylate] |  | 2940 nM |
| Cn1cc(-c2cc(-c3ccc(N4CCC5(CN(C(=O)OC(C)(C)C)C5)C4)nc3)c3c(C#N)cnn3c2)cn1 [Example 521, tert-butyl 6-(5-(3-cyano-6-(1-methyl-1H-pyrazol-4-yl)pyrazolo[1,5-a]pyridin-4-yl)pyridin-2-yl)-2,6-diazaspiro[3.4]octane-2-carboxylate] |  | 675 nM |
| Cn1cc(-c2cc(-c3ccc(N4CCN(C(=O)OC(C)(C)C)CC4)cc3)c3c(C#N)cnn3c2)cn1 [Example 290, tert-Butyl 4-(4-(3-cyano-6-(1-methyl-1H-pyrazol-4-yl)pyrazolo[1,5-a]pyridin-4-yl)phenyl)piperazine-1-carboxylate] | 3440 nM |  |

Results, then the molecule that gave them:

| IC50 (10% FBS) | IC50 | Structure (SMILES) |
| --- | --- | --- |
|  | 916 nM | Cn1cc(-c2cc(-c3ccc(N4CCN(Cc5ccc(Cl)cc5)CC4)nc3)c3c(C#N)cnn3c2)cn1 [Example 425, 4-(6-(4-(4-chlorobenzyl)piperazin-l-yl)pyridin-3-yl)-6-(1-methyl-1H-pyrazol-4-yl)pyrazolo[1,5-a]pyridine-3-carbonitrile] |
|  | 263 nM | COc1ccc(CN2CCN(c3ccc(-c4cc(-c5cnn(C)c5)cn5ncc(C#N)c45)cn3)CC2)cc1 [Example 432, 4-(6-(4-(4-methoxybenzyl)piperazin-1-yl)pyridin-3-yl)-6-(1-methyl-1H-pyrazol-4-yl)pyrazolo[1,5-a]pyridine-3-carbonitrile] |
|  | 671 nM | Cn1cc(-c2cc(-c3ccc(C4CCCN(Cc5ccccc5)C4)nc3)c3c(C#N)cnn3c2)cn1 (stereo not drawn) [Example 581, 4-(6-(1-benzylpiperidin-3-yl)pyridine-3-yl)-6-(1-methyl-1H-pyrazol-4-yl)pyrazolo[1,5-a]pyridine-3-carbonitrile] |
|  | 1500 nM | CCOCCN1CCN(c2ccc(-c3cc(-c4cnn(C)c4)cn4ncc(C#N)c34)cn2)CC1 [Example 397, 4-(6-(4-(2-ethoxyethyl)piperazin-1-yl)pyridin-3-yl)-6-(1-methyl-1H-pyrazol-4-yl)pyrazolo[1,5-a]pyridine-3-carbonitrile] |
| 289 nM |  | Cn1cc(-c2cc(-c3ccc(N4CCN(Cc5ccccc5)CC4)nc3)c3c(C#N)cnn3c2)cn1 [Example 139, 4-(6-(4-benzylpiperazin-1-yl)pyridin-3-yl)-6-(1-methyl-1H-pyrazol-4-yl)pyrazolo[1,5-a]pyridine-3-carbonitrile] |
| 918 nM |  | Cn1cc(-c2cc(-c3ccc(N4CCNCC4)cc3)c3c(C#N)cnn3c2)cn1 [Example 291, 6-(1-methyl-1H-pyrazol-4-yl)-4-(4-(piperazin-1-yl)phenyl)pyrazolo[1,5-a]pyridine-3-carbonitrile dihydrochloride] |
|  | 1620 nM | C[C@H](c1ccccc1)N1CCN(c2ccc(-c3cc(-c4cnn(C)c4)cn4ncc(C#N)c34)cn2)CC1 [Example 421, (R)-6-(1-methyl-1H-pyrazol-4-yl)-4-(6-(4-(1-phenylethyl)piperazin-1-yl)pyridin-3-yl)pyrazolo[1,5-a]pyridine-3-carbonitrile dihydrochloride] |
| 651 nM |  | Cn1cc(-c2cc(-c3ccc(N4CCN(C(=O)C5(c6ccccc6)CCC5)CC4)nc3)c3c(C#N)cnn3c2)cn1 [Example 27, 6-(1-methyl-1H-pyrazol-4-yl)-4-(6-(4-(1-phenylcyclobutane-1-carbonyl)piperazin-1-yl)pyridin-3-yl)pyrazolo[1,5-a]pyridine-3-carbonitrile] |
| ≥ 5000 nM |  | Cn1cc(-c2cc(-c3ccc(N4CC[C@@H](C(=O)N5CCCC5)C4)nc3)c3c(C#N)cnn3c2)cn1 [Example 260, (R)-6-(1-methyl-1H-pyrazol-4-yl)-4-(6-(3-(pyrrolidine-1-carbonyl)pyrrolidin-1-yl)pyridin-3-yl)pyrazolo[1,5-a]pyridine-3-carbonitrile] |
